Assay results reported in patent US7947854B2, “Bis-cationic compounds and use thereof” (The University of Sydney, priority 2003, dated 2011).
Where “and” joins values, the source holds several entries; their conditions need not be identical. Equal values may be shown once. Marks after values point to notes of the source that are not given here.

What was measured:
[1] = test system: Cryptococcus neoformans ATCC 90112; assay: In vitro antifungal activity, yeasts, NCCLS M27-A; assay type: cell-based; conditions: Cryptococcus neoformans, ATCC90112; Table 9
Description: (§1) The assay used for yeasts (Candida; Cryptococcus) is that of the National Committee for Clinical Laboratory Standards. 1997. Reference Method for Broth Dilution Antifungal Susceptibility Testing of Yeasts: Approved Standard. NCCLS document M27-A.Villanova, Pa., USA as published in Ghannoum, M. A., A. S. Ibrahim, Y. Fu, M. C. Shafiq, J. E Edwards, Jr. and R. S. Criddle. 1992. Susceptibility testing of Cryptococcus neoformans: A microdilution technique. J. Clin. Microbiol. 30:2881-2886.

[2] = test system: Candida albicans ATCC 10231; assay: In vitro antifungal activity, yeasts, NCCLS M27-A; assay type: cell-based; conditions: Candida albicans, ATCC10231; Table 9
Description: as §1

[3] = test system: membrane-associated phospholipase B (LPL/LPTA activities); assay: Radiometric assay, membrane-associated LPL/LPTA activities; assay type: biochemical, Cryptococcus neoformans H99; conditions: pH 4
Description: Fungal isolates and media. […] Isolate H99 was kindly supplied by Dr. Gary Cox (Duke University Medical Center, Durham, N.C., USA), and subcultured onto Sabouraud dextrose agar (SDA) at 30° C.
Cellular disruption to prepare membrane and cytosolic fractions. The cell pellet from the preparation of the supernatant, above, was also frozen at −70° C. After washing twice with imidazole buffer, it was disrupted in the presence of a protease inhibitor cocktail (P 8215 for fungal and yeast cells; 4-(2-aminoethyl)benzenesulfonyl fluoride hydrochloride, 100 mM, 1,10-phenanthroline, 500 mM, pepstatin A, 2.2 mM, E-64, 1.4 mM; Sigma) in a MiniBeadbeater-8 Cell Disrupter (MBB-8; Daintree Scientific, Tasmania, Australia) for three cycles of 1 min, alternating with a 1 min cooling period on ice. The homogenate was centrifuged at 14,000 g for 15 min to obtain the membrane (pellet) and the cytosolic (supernatant) fractions.
Secreted LPL and LPTA activities were measured simultaneously in a reaction mixture containing 1-[^14C]palmitoyl lyso-PC (25,000 dpm) and carrier lyso-PC (final concentration 200 μM) in assay buffer. The reaction time was […] with 1 μg of total protein and LPL activity was measured by the rate of loss of 1-[^14C]palmitoyl lyso-PC with release of radiolabelled fatty acids. LPTA activity was estimated from the rate of formation of radiolabelled PC.
All reactions were terminated by adding 0.5 mL of chloroform:methanol (2:1 v/v). The reaction products were extracted by the method as disclosed in Bligh, E. C. and W. J. Dyer. 1959 ‘A rapid method of total lipid extraction and purification.’ Can. J. Biochem. Physiol. 37:911-917, separated by TLC and quantified as previously described. In the case of PLC activity, the TLC plates were developed in petroleum ether (BP 60-80° C.): diethyl ether: acetic acid (90:15:1, v/v/v) instead of chloroform:methanol:water (65:25:4, v/v/v).
All experiments were carried out in duplicate or triplicate. The effects of pH on the various phospholipase activities were measured using 50 mM final concentration of imidazole-acetate buffer (pH range 3-5), MES buffer (pH range 6-8) and glycine buffer (pH 9-10). Controls for non-enzymic breakdown of substrates were included at all pH values. Cations, Triton X-100 and metal chelators were made up as stock solutions in water and diluted to the final concentration in the appropriate assay buffer.
Preparation of inhibitors and use in assays. The following compounds were tested (for structures, see FIG. 2): compound 1, 1,12-bis(tributylphosphonium)dodecane dibromide (Fluka AG, Buchs, Switzerland); compound 2, 1,10-bis(tributylammonium)-decane dibromide; compound 3, 1,12-bis(tributylammonium)do-decane dibromide (both synthesised in-house); compound 4, 1,10-bis(trimethylammonium)decane dibromide [“decamethonium”] (Sigma, St. Louis Mo., USA). All compounds were prepared as stock solutions of 700 μM in assay buffer containing 5 mM EDTA, which was then diluted serially with buffer to obtain solutions of 70, 7, 0.7 and 0.07 μM. In each assay, 45 μL of these solutions was used, and the final volume of 125 μL was made up of substrate, enzyme and buffer. The radiometric assay was carried out as above. Inhibition was calculated as the percent of substrates (DPPC or Lyso-PC) remaining in the case of PLB and LPL activities, or of DPPC produced, in the case of the LPTA activity. The amounts converted, or produced, in the inhibitor-free control were normalised to 100%, and the inhibition calculated against it. All assays were done in triplicate.
Under these conditions only PLB, LPL and LPTA activities (both secreted and cell-associated) were measured. Initially, compounds deemed to be potential inhibitors were assayed at 25 and 250 μM.

[4] = test system: secreted phospholipase B (LPL/LPTA activities); assay: Radiometric assay, secreted LPL and LPTA activities (Lyso assay); assay type: biochemical, Cryptococcus neoformans H99; conditions: for % Inhibition LPL, Secretory Enzyme / % Inhibition LPTA, Secretory Enzyme: pH 4
How it was run: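 Cell-free supernatant from C. neoformans H99 (incubated 24 h at 37° C in imidazole buffer, pH 5.5) with 1 μg total protein and 200 μM lyso-PC incl. 1-[^14C]palmitoyl lyso-PC, 15 s reaction. LPL from substrate loss, LPTA from radiolabelled PC formed, after extraction and TLC; inhibitors tested at 25 and 250 μM, then 2.5 and 0.25 μM, inhibition vs inhibitor-free control, triplicate.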

CCCC[N+](CCCC)(CCCC)CCCCCCCCCCCC[N+](CCCC)(CCCC)CCCC [1,12-Bis-(tributylammonium)dodecane dichloride]
MIC [1]: 1.3 µg/mL and 2.2 µM
MIC [2]: 2.6 µg/mL and 4.4 µM

CCCC[P+](CCCC)(CCCC)CCCCCCCCCCCC[P+](CCCC)(CCCC)CCCC [Compound 1, 1,12-bis(tributylphosphonium)dodecane dibromide]
% Inhibition LPL, Membrane-bound Enzyme ([3]; 2.5 μM): 0%
% Inhibition LPTA, Membrane-bound Enzyme ([3]; 2.5 μM): 0%
% Inhibition LPL, Membrane-bound Enzyme ([3]; 25 μM): 0%
% Inhibition LPTA, Membrane-bound Enzyme ([3]; 25 μM): 0%
% Inhibition LPL, Membrane-bound Enzyme ([3]; 250 μM): 0%
% Inhibition LPTA, Membrane-bound Enzyme ([3]; 250 μM): 0%
Lyso assay (% inhibition) LPL ([4]; 0.25 μM): 0%
Lyso assay (% inhibition) LPTA ([4]; 0.25 μM): 0%
% Inhibition LPL, Secretory Enzyme ([4]; 0.25 μM): 0%
% Inhibition LPTA, Secretory Enzyme ([4]; 0.25 μM): 0%
Lyso assay (% inhibition) LPL ([4]; 2.5 μM): 0%
Lyso assay (% inhibition) LPTA ([4]; 2.5 μM): 0%
% Inhibition LPL, Secretory Enzyme ([4]; 2.5 μM): 0%
% Inhibition LPTA, Secretory Enzyme ([4]; 2.5 μM): 0%
Lyso assay (% inhibition) LPL ([4]; 25 μM): 0%
Lyso assay (% inhibition) LPTA ([4]; 25 μM): 0%
% Inhibition LPL, Secretory Enzyme ([4]; 25 μM): 0%
% Inhibition LPTA, Secretory Enzyme ([4]; 25 μM): 0%
Lyso assay (% inhibition) LPL ([4]; 250 μM): 6%
Lyso assay (% inhibition) LPTA ([4]; 250 μM): 4%
% Inhibition LPL, Secretory Enzyme ([4]; 250 μM): 6.3* %
% Inhibition LPTA, Secretory Enzyme ([4]; 250 μM): 3.7* %
